Reference: patent US20230407243A1, “GENETIC PLATFORM TO INVESTIGATE THE FUNCTIONS OF BACTERIAL DRUG EFFLUX PUMPS” (priority 2022, published 2023)
Read-outs that look alike come from different tables or passages of the source.

Experiments:
Format in all cases: cell-based, Escherichia coli
EKO-35 araC::emrKY Pore = assay: MIC susceptibility profiling, porinated efflux platform; conditions: for Fold changes of MICs: EKO-35 araC::emrKY Pore compared to EKO-35-Pore; for MIC: Escherichia coli, EKO-35 araC::emrKY Pore, technical duplicate, read-out: Minimum inhibitory concentration
In short: (§1)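 Strains carry the fhuA ΔC/Δ4L pore integrated between glmS and pstS under a constitutive promoter, with pore activity checked by vancomycin susceptibility. Overnight LB cultures were adjusted in PBS pH 7.4 to OD600 ~1.0 and diluted 1/2000 into MHB II. 2-fold compound titrations were read by OD600 after 18 h at 37 °C.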

EKO-35 araC::mdtBC Pore = assay: as above; conditions: for Fold changes of MICs: EKO-35 araC::mdtBC Pore compared to EKO-35-Pore; for MIC: Escherichia coli, EKO-35 araC::mdtBC Pore, technical duplicate, read-out: Minimum inhibitory concentration
In short: as §1

EKO-35 araC::mexCD Pore = assay: as above; conditions: for Fold changes of MICs: EKO-35 araC::mexCD Pore compared to EKO-35-Pore; for MIC: Escherichia coli, EKO-35 araC::mexCD Pore, technical duplicate, read-out: Minimum inhibitory concentration
In short: as §1

EKO-35 araC::mdtEF Pore = assay: as above; conditions: for Fold changes of MICs: EKO-35 araC::mdtEF Pore compared to EKO-35-Pore; for MIC: Escherichia coli, Table 14A, porinated, technical duplicate, read-out: Minimum inhibitory concentration, EKO-35 araC::mdtEF Pore
In short: as §1

EKO-35 araC::macAB Pore = assay: as above; conditions: for Fold changes of MICs: EKO-35 araC::macAB Pore compared to EKO-35-Pore; for MIC: Escherichia coli, EKO-35 araC::macAB Pore, technical duplicate, read-out: Minimum inhibitory concentration
In short: as §1

[1] = tested on: EKO-35 strains producing different efflux pumps (EKO-35 araC::X); assay: Checkerboard synergy (FICI) of PAβN or NMP with antibiotics; conditions: for MICb Alone: antibiotic alone
Description: Synergy measurement using checkerboard analysis was performed in 96-well microtiter plates using the microdilution broth method, according to CLSI guidelines (Patel J. B., 2015). The cell inocula were prepared using the colony resuspension method. The minimum inhibitory concentrations (MICs) were defined as the lowest concentration that provided no growth, as determined by measurement of the OD600nm using a Synergy H1 microplate reader (BioTek). Susceptibility testing was performed in MHB II with a final volume of 100 μL. PAI3N (Bachem Americas) was solubilized in MHB II. […] Solvent controls were included in each plate.
The Fractional Inhibitory Concentration Index (FICI) was used to assess the synergy of PAI3N in combination with different antibiotics. The FICI represents the ΣFIC of each drug. The FICI for each drug was calculated using the following formula: FICI=FICA+FICB=(CA/MICA)+(CB/MICB). Where MICA and MICB are the MICs of drugs A (PAI3N/NMP) and B (antibiotic) alone, and CA and CB are the MICs of the drugs in combination. The effects of PAβN or NMP in combination with antibiotics were classified as: synergistic (FICI<0.5), additive (FICI>0.5-1.0), indifferent (FICI>1.0-2.0), and antagonistic (FICI>2.0). Fold increases in resistance provided by efflux pumps were calculated by dividing the MIC values of strains expressing efflux pumps by the MIC value of EKO-35.

E. coli EKO-35 = assay: microbe, parasite or virus in culture; conditions: for Fold change of MICs: EKO-35 compared to EKO-35 (reference); for MIC: Escherichia coli, EKO35, technical duplicate
In short: (§2)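 MIC derived from pre-incubation-corrected OD600 after 18 h growth at 37° C. (900 rpm) in MHB II. Inoculum was cells from 18 h LB culture adjusted to OD600 ~1.0 in PBS, then diluted 1/2000; compounds two-fold serially titrated in duplicate, DMSO as solvent control.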

[2] = tested on: wild-type E. coli K-12 str. BW25113; assay: microbe, parasite or virus in culture; conditions: Escherichia coli, BW25113, technical duplicate
In short: as §2

E. coli ΔtolC = assay: microbe, parasite or virus in culture; conditions: for MIC: Escherichia coli, 18 h, read-out: Minimum Inhibitory Concentration, ΔtolC; for Minimum inhibitory concentration (MIC), ΔtolC: Table 10, without pore, technical duplicate
In short: as §2

[3] = strain EKO-35 acrB, NMP + antibiotic
[4] = strain EKO-35 acrB, antibiotic in combination with NMP
[5] = strain EKO-35 acrEF, NMP + antibiotic
[6] = Table 10, without pore, read-out: Minimum inhibitory concentration (MIC), EKO-35
[7] = Table 13A, non-porinated, read-out: Minimum Inhibitory Concentration, EKO-35
[8] = Table 10, without pore, read-out: Minimum inhibitory concentration (MIC), K-12
[9] = Table 13A, non-porinated, read-out: Minimum Inhibitory Concentration, K-12

Structure (SMILES)	Fold changes of MICs (EKO-35 araC::emrKY Pore)	MIC (EKO-35 araC::emrKY Pore)	Fold changes of MICs (EKO-35 araC::mdtBC Pore)	MIC (EKO-35 araC::mdtBC Pore)	Fold changes of MICs (EKO-35 araC::mexCD Pore)	MIC (EKO-35 araC::mexCD Pore)	Fold changes of MICs (EKO-35 araC::mdtEF Pore)	MIC (EKO-35 araC::mdtEF Pore)	Fold changes of MICs (EKO-35 araC::macAB Pore)	MIC (EKO-35 araC::macAB Pore)	FICI ([1]; EKO-35 acrB, NMP + antibiotic)	Effect [1, 3]	FICI [1, 3]	MICb Combined [1, 4]	Fold change of MICs (E. coli EKO-35)	MIC (E. coli EKO-35; [6])	MIC (E. coli EKO-35; [7])	MIC [2, 8]	MIC [2, 9]	MIC (E. coli ΔtolC)	further results
CC[n+]1c(-c2ccccc2)c2cc(N)ccc2c2ccc(N)cc21 [ethidium bromide]	1 fold	0.098 µg/mL	1 fold	0.098 µg/mL	8 fold	0.781 µg/mL	8 fold	0.781 µg/mL	1 fold	0.098 µg/mL	0.253	Synergistic (Synergy (FICI ≤0.5))	0.253	2 µg/mL	1 fold	0.195 µg/mL	0.195 µg/mL	100 µg/mL	100 µg/mL	3.12 µg/mL	FICI ([1]; EKO-35 acrEF, NMP + antibiotic): 0.500; MICb Alone ([1]; strain EKO-35 acrB): 15.6 µg/mL; Effect [1, 5]: Synergistic (Synergy (FICI ≤0.5)); FICI [1, 5]: 0.500; MICb Alone ([1]; strain EKO-35 acrEF): 2 µg/mL; MICb Combined ([1]; strain EKO-35 acrEF, antibiotic in combination with NMP): 0.5 µg/mL; Minimum inhibitory concentration (MIC), ΔtolC (E. coli ΔtolC): 3.125 µg/mL
CC(=O)NC[C@H]1CN(c2ccc(N3CCOCC3)c(F)c2)C(=O)O1 [linezolid]	1 fold	3.91 µg/mL	1 fold	3.91 µg/mL	2 fold	7.81 µg/mL	2 fold	7.81 µg/mL	1 fold	3.91 µg/mL	0.281	Synergistic (Synergy (FICI ≤0.5))	0.281	8 µg/mL	1 fold	7.81 µg/mL	7.81 µg/mL	500 µg/mL	500 µg/mL	7.81 µg/mL	Effect ([1]; EKO-35 acrB, NMP + antibiotic): Synergistic; Effect ([1]; EKO-35 acrB, PAβN + antibiotic): Synergistic; MICb Combined ([1]; EKO-35 acrB, antibiotic in combination with PAβN): 16 µg/mL; Minimum inhibitory concentration (MIC), ΔtolC (E. coli ΔtolC): 7.813 µg/mL
